Data on 2 compounds can be found in paper PMC12696353, “Structural insights into endogenous agonist selectivity of aminergic receptors from the octopamine β2 receptor” (PNAS Nexus, 2025).

The target in test [1] is I. scapularis octβ2R (is-octβ2R) (Ixodes scapularis, UniProt A0ACM8E5E8). Nature of the test: cell-based. Format: cell-based. Conditions: for Emax: AP-TGFα release. The procedure:
(§1) The TGFα shedding assay was performed as previously described ([28]). […] The cells were transfected using lipofectamine 2000 with plasmids encoding alkaline phosphatase–tagged TGFα (AP-TGFα) (2.5 ng/mL), is-octβ2Rs (1 ng/mL), and Gαq/s (0.5 ng/mL). After 24 h, the cells were washed with phosphate-buffered saline and resuspended in Hank's balanced salt solution (HBSS) (supplemented with 5 mM HEPES [pH 7.4]). The cells (90 μL/well) were plated in a 96-well plate and incubated with 10 μL of HBSS solution containing various concentrations of compounds for 1 h at 37 °C. Following centrifugation (200 × g, 2 min), 80 μL of the supernatant was transferred to a separate 96-well plate. Subsequently, 80 µL of 2× para-nitrophenyl phosphate (pNPP) buffer (containing 10 mM pNPP in 40 mM Tris–HCl [pH 9.5], 40 mM NaCl, and 10 mM MgCl2) was added to both the supernatant and cell-containing plates. The optical density at 405 nm of both plates was measured before and after a 1 h incubation at room temperature using a microplate reader (SpectraMax iD3, Molecular Devices, San Jose, CA, United States). AP-TGFα release was calculated using the following formulas:
(§2) ΔOD405=OD450(1h)−OD405(0h)AP−TGFαinsupernatant(%)=(ΔOD405Sup/[ΔOD450Sup+ΔOD405Cell])×125AP−TGFαrelease(%)=AP−TGFαinsupernatantunderastimulatedcondition(%)−AP−TGFαinsupernatantunderavehicle−treatedcondition
(§3) where OD405 (0 h) and […] represent the OD405 before and after a 1 h incubation, respectively, and OD405Sup and OD405Cell represent the OD405 of supernatant and cell plates, respectively. For all pharmacological analyses, nonlinear regression curve fitting was performed with a 3-parameter sigmoid model (Hill coefficient = 1) using Prism 8 (GraphPad Software, La Jolla, CA, United States).

In test [2] the target is T1, is-octβ2R T60^1.41P mutant (Ixodes scapularis, UniProt A0ACM8E5E8).
T1 sequence (A0ACM8E5E8 1-384 T39P): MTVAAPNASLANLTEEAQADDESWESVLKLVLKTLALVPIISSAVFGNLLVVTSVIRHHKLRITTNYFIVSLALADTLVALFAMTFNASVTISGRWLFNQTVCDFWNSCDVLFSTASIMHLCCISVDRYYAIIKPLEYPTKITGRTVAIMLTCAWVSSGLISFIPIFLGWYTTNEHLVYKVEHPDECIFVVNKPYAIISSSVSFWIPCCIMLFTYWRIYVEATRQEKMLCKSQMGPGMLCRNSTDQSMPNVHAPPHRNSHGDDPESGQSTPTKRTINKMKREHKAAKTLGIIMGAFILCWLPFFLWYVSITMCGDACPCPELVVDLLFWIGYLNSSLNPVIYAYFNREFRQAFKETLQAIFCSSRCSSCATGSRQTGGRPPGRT
Nature of the test: TGFα shedding assay, amitraz-resistant mutant T60^1.41P. Format: cell-based. Conditions: Table S4. The procedure: as §1, §2, §3

Test [3] addresses T2, is-octβ2R I61^1.42F mutant (Ixodes scapularis, UniProt A0ACM8E5E8, I40F).
T2 sequence (A0ACM8E5E8 1-384 I40F): T1 sequence (A0ACM8E5E8 1-384 T39P) with P39T, I40F
Description: TGFα shedding assay, amitraz-resistant mutant I61^1.42F. Conditions: Table S4. Format: cell-based. The procedure:
as §1, §2, §3

Test [4] has as its target T3, is-octβ2R I62^1.43T mutant (Ixodes scapularis, UniProt A0ACM8E5E8, I41T).
T3 sequence (A0ACM8E5E8 1-384 I41T): T1 sequence (A0ACM8E5E8 1-384 T39P) with P39T, I41T
Description: TGFα shedding assay, amitraz-resistant mutant I62^1.43T. Type of test: cell-based. Conditions: Table S4. The procedure: as §1, §2, §3

The target in test [5] is T4, is-octβ2R Y67^2.41S mutant (Ixodes scapularis, UniProt A0ACM8E5E8, Y67S).
T4 sequence (A0ACM8E5E8 1-384 Y67S): T1 sequence (A0ACM8E5E8 1-384 T39P) with P39T, Y67S
Nature of the test: TGFα shedding assay, amitraz-resistant mutant Y67^2.41S. Conditions: Table S4. Type of test: cell-based. The procedure: as §1, §2, §3

The subject of test [6] is is-octβ2R D110^3.32A mutant. Nature of the test: TGFα shedding assay, mutant D110^3.32A. Format: cell-based, Ixodes scapularis. Conditions: Table S6. The procedure: as §1
(§4) ΔOD405=OD450(1h)−OD405(0h)AP−TGFαinsupernatant(%)=(ΔOD405Sup/[ΔOD450Sup+ΔOD405Cell])×125AP−TGFαrelease(%)=AP−TGFαinsupernatantunderastimulatedcondition(%)−AP−TGFαinsupernatantunderavehicle−treatedcondition […]

For test [7], the system named is is-octβ2R F189^45.52A mutant. Description: TGFα shedding assay, mutant F189^45.52A. Type of test: cell-based, Ixodes scapularis. Conditions: Table S6. The procedure:
as §1, §4

In test [8] the test system is is-octβ2R S199^5.42A mutant. Nature of the test: TGFα shedding assay, mutant S199^5.42A. Format: cell-based, Ixodes scapularis. The procedure:
as §1, §2, §3

The subject of test [9] is is-octβ2R Y307^6.55A mutant. Description: TGFα shedding assay, mutant Y307^6.55A. Conditions: Table S6. Type of test: cell-based, Ixodes scapularis. The procedure:
as §1, §4

Setting [10] is: HEK293, 1 h, Table S2, wild type, HEK293 cells, mean ± SEM, n = 3.
The mark [11] stands for this setting: logEC50, Table S2, wild type, HEK293 cells, mean ± SEM, n = 3.

Residue numbers refer to the chain shown, from its start. Entries after “also recorded” stand apart in the source; their conditions may differ.

Regarding `CN/C=N/c1ccc(C)cc1C` [DPMF, N-2,4-dimethylphenyl-N′-methylformamidine], the Emax in [1] (1 h, Table S4, WT) was 21 ± 1%; in [1] (1 h, Table S6, WT) it was 25 ± 0.7%; in test [1] (setting [10]) it was 24 ± 0.6%. For the same compound, the concentration giving a half-maximal response (EC50) was 7.94 nM in test [1] (LogEC50, Table S4, WT); 3.98 nM in test [1] (setting [11]); 7.94 nM in [2]; 7.94 nM in [3]; 2 nM in test [4]; 6.31 nM in [5]. For the same compound, the logEC50 entry is listed as “no activity” in test [6], “no activity” in [7], “signal observed only at 10-5 M; also recorded: signal observed only at 10^−5 M” in [8] (Table S6) and “no activity” in test [9].
As for `NCC(O)c1ccc(O)cc1` (centres unmarked) [Octopamine, octopamine], the Emax is 23 ± 0.8% in test [1] (1 h, Table S4, WT); 27 ± 1.5% in [1] (1 h, Table S6, WT); 27 ± 0.7% in test [1] (setting [10]). Also, the EC50 is 10 nM in test [1] (LogEC50, Table S4, WT); 20 nM in [1] (setting [11]); 25.1 nM in [1] (logEC50, Table S6, WT); 10 nM in [2]; 7.94 nM in test [3]; 5.01 nM in [4]. In [5], this compound gave an EC50 of 12.6 nM. The “potency (EC50) relative to the other TDAs” value in test [1] (wild type, order octopamine > tyramine > noradrenaline > dopamine) is “highest potency”. Besides, the logEC50 result in test [6] is on record as “no activity”; in [7], “no activity”; in test [8] (Table S6) it was “signal observed only at 10-5 M”; in test [8] (Table S6, listed as octopamine), “signal observed only at 10^−5 M”; in test [9] it was “no activity”.

What is called Emax is the size of the effect at its maximum, as opposed to the concentration needed. One may read the EC50 as the concentration needed to bring the measured effect to its halfway point. Read a low EC50 as higher potency in that assay.
